Reference: patent publication US10450593B2, “Type II fatty acid synthesis enzymes in reverse β-oxidation” (William Marsh Rice University, priority 2014, dated 2019)
Like-named read-outs stand apart in the source and are kept apart here.

Columns and labels:
[1] = biological target: T1, FabI (Escherichia coli, UniProt P0AEK4); assay: Inhibition of FabI crotonyl-CoA reduction activity by CoA thioesters; format: biochemical, E. coli; conditions: for inhibitory effect on FabI activity: CoA thioester at 20 or 200 μM
T1 sequence (P0AEK4 1-262): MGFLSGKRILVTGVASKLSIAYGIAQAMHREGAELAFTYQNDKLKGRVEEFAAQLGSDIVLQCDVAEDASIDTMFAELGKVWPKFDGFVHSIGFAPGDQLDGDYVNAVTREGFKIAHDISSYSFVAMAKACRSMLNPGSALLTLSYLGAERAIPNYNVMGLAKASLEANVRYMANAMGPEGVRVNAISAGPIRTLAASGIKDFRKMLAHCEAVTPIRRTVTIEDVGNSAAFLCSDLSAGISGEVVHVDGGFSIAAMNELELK
From the text: FIG. 3. Characterization of crotonyl-CoA reduction to butyryl-CoA by FabI. FIG. 3A. Mass spectrum analysis of FabI reduction of crotonyl-CoA to butyryl-CoA. (i) Controls of crotonyl-CoA (836.3 m/z—gray) and butyryl-CoA (838.3 m/z—black). (ii) Reaction mixture without FabI. (iii) Reaction mixture with FabI. FIG. 3B. pH activity profile of FabI with crotonyl-CoA and NADH relative to pH 7.5 (1.0). FIG. 3C. Inhibition profile of crotonyl-CoA reduction activity for FabI with the indicated CoA thioesters at either 20 or 200 μM relative to activity in absence of inhibitor (100%).
(§1) For measurement of enzymatic activities from fermentation samples, cells were disrupted as previously reported (Dellomonaco, Clomburg, Miller, & Gonzalez, 2011). The HIS Tagged FabI protein was expressed from pCA24N-FabI from the ASKA collection (Kitagawa et al., 2005) in BL21(DE3) cells (NEW ENGLAND BIOLABS™) induced at OD600≈0.4 with 0.1 mM IPTG and shaken O/N at Room Temperature. FabI protein was harvested and purified as previously reported using Talon Metal Affinity Resin (CLONTECH LABORATORIES™) (Clomburg et al., 2012).
(§2) Thiolase activity (Wiesenborn, Rudolph, & Papoutsakis, 1988) and β-hydroxybutyryl-CoA dehydrogenase activity (Bond-Watts, Bellerose, & Chang, 2011a) were monitored accordingly as previously described (Clomburg et al., 2012). Trans-enoyl-CoA reductase activity for egTER, FabI, bsFabL, efFabK and vcFabV were monitored by loss of NADH (Bond-Watts et al., 2011a; Clomburg et al., 2012). Acyl-CoA dehydrogenase activity was monitored by measuring the reduction of Methyl-Thiazolyl Blue (MTT) coupled to the oxidation of butyryl-CoA (O'Brien & Frerman, 1977) in cellular extracts disrupted as above with the addition of 5 μM flavin adenine dinucleotide (FAD).
To understand the potential of utilizing FabI for BOX-R, we examined the effect of key CoA thioester intermediates of the BOX-R as well as a broad range of acyl-CoAs on FabI activity […].

[2] = biological target: T1, FabI; conditions: substrate of FabI, Bergler 1994; cited from earlier work
[3] = biological target: T1, FabI
[4] = substrate: C/C=C/C(=O)SCCNC(=O)CCNC(=O)[C@H](O)C(C)(C)COP(=O)(O)OP(=O)(O)OC[C@H]1O[C@@H](n2cnc3c(N)ncnc32)[C@H](O)[C@@H]1OP(=O)(O)O; assay: Kinetic parameters of purified N-terminal His-tagged FabI with crotonyl-CoA and NADH; format: biochemical, E. coli; conditions: other: substrate of purified FabI, NADH
Protocol: as §1, §2
N-terminal His-tagged FabI was purified from an ASKA collection vector (Kitagawa et al., 2005) expressed in the strain BL21(DE3). […] This change in kcat increases the expected rate of crotonyl-CoA reduction by FabI to a value between 1.02×10^−7M s^−1 and 7.86×10^−11 M s^−1, which is in agreement with the rate observed in our cultures. To verify that FabI is utilizing NADH to convert crotonyl-CoA to butyryl-CoA, the reaction was monitored via HPLC-MS, which confirmed that FabI converts crotonyl-CoA almost completely to butyryl-CoA (FIG. 3a).

CC(O)CC(=O)SCCNC(=O)CCNC(=O)[C@H](O)C(C)(C)COP(=O)(O)OP(=O)(O)OC[C@H]1O[C@@H](n2cnc3c(N)ncnc32)[C@H](O)[C@@H]1OP(=O)(O)O (stereo partly shown) [3-hydroxy-butyryl-CoA]
inhibitory effect on FabI activity [1]: minimal inhibitory effects

CC(=O)CC(=O)SCCNC(=O)CCNC(=O)[C@H](O)C(C)(C)COP(=O)(O)OP(=O)(O)OC[C@H]1O[C@@H](n2cnc3c(N)ncnc32)[C@H](O)[C@@H]1OP(=O)(O)O [acetoacetyl-CoA]
inhibitory effect on FabI activity [1]: minimal inhibitory effects

C/C=C/C(=O)SCCNC(=O)CCNC(=O)[C@H](O)C(C)(C)COP(=O)(O)OP(=O)(O)OC[C@H]1O[C@@H](n2cnc3c(N)ncnc32)[C@H](O)[C@@H]1OP(=O)(O)O [crotonyl-CoA]
reported kcat [2]: 0.23 s⁻¹

CCCCCCCCCC(=O)SCCNC(=O)CCNC(=O)C(O)C(C)(C)COP(=O)(O)OP(=O)(O)OC[C@H]1O[C@@H](n2cnc3c(N)ncnc32)[C@H](O)[C@@H]1OP(=O)(O)O (stereo partly shown) [decaonyl-CoA]
Ki ([3]; literature, Helmut Bergler 1996; read-out: Ki towards FabI; cited from earlier work): ~900 µM

CCCCCCCCCCCCCC(=O)SCCNC(=O)CCNC(=O)[C@H](O)C(C)(C)COP(=O)(O)OP(=O)(O)OC[C@H]1O[C@@H](n2cnc3c(N)ncnc32)[C@H](O)[C@@H]1OP(=O)(O)O [myristoyl-CoA]
percent inhibition of FabI crotonyl-CoA reduction activity ([1]; CoA thioester at 200 μM): highest percent inhibition

CCCCCCCCCCCCCCCC(=O)SCCNC(=O)CCNC(=O)[C@H](O)C(C)(C)COP(=O)(O)OP(=O)(O)OC[C@H]1O[C@@H](n2cnc3c(N)ncnc32)[C@H](O)[C@@H]1OP(=O)(O)O [palmitoyl-CoA]
inhibition at 20 µM ([1]; read-out: inhibition of FabI crotonyl-CoA reduction activity): ~50%
Ki ([3]; read-out: Ki towards FabI; literature, Helmut Bergler 1996; cited from earlier work): 20 µM

B1: FabI (Escherichia coli K-12) (protein)
chain: MGFLSGKRILVTGVASKLSIAYGIAQAMHREGAELAFTYQNDKLKGRVEEFAAQLGSDIVLQCDVAEDASIDTMFAELGKVWPKFDGFVHSIGFAPGDQLDGDYVNAVTREGFKIAHDISSYSFVAMAKACRSMLNPGSALLTLSYLGAERAIPNYNVMGLAKASLEANVRYMANAMGPEGVRVNAISAGPIRTLAASGIKDFRKMLAHCEAVTPIRRTVTIEDVGNSAAFLCSDLSAGISGEVVHVDGGFSIAAMNELELK
Km [4]: 4.6 ± 0.6 mM
kcat [4]: 5.3 ± 0.6 s⁻¹
kcat/Km [4]: 1150 M⁻¹ s⁻¹
